Experimental data from patent US8541460B2, “PDK-1/Akt signaling inhibitors” (The Ohio State University, priority 2003, dated 2013).

Legend:
PC-3 cells = experiment: PC-3 cell viability analysis (MTT); format: cell-based, human; settings: inducing apoptotic death in PC-3 cells / PC-3 cell viability; read-out: IC50 PC-3
Protocol: Cell Culture PC-3 (p53−/−) human androgen-nonresponsive prostate cancer cells were purchased from the American […] (Manassas, Va.). Cells were cultured in RPMI 1640 medium (Gibco, Grand Island, N.Y.) supplemented with 10% fetal bovine serum (FBS; Gibco) at 37° C. in a humidified incubator containing 5% CO2.
Cell viability analysis The effect of 4-[5-(4-methylphenyl)-3-(trifluoromethyl)-1H-pyrazol-1-yl]benzenesulfonamide and its derivatives on PC-3 cell viability was assessed by using the MTT {[3-(4,5-dimethylthiazol-2-yl)-2,5-diphenyl-2H-tetrazolium bromide]} assay in six replicates. Cells were grown in 10% FBS-supplemented RPMI 1640 medium in 96-well, flat bottomed plates for 24 h, and were exposed to various concentrations of compounds 1-36 dissolved in DMSO (final concentration≦0.1%) in 1% serum-containing RPMI 1640 medium for different time intervals. Controls received DMSO vehicle at a concentration equal to that in drug-treated cells. The medium was removed, replaced by 200 μl of 0.5 mg/ml of MTT in 10% FBS-containing RPMI-1640 medium, and cells were incubated in the CO2 incubator at 37° C. for 2 h. Supernatants were removed from the wells, and the reduced MTT dye was solubilized in 200 μL/well DMSO. Absorbance at 570 nm was determined on a plate reader.

recombinant PDK-1 = biological target: T1, recombinant PDK-1 (Homo sapiens, UniProt O15530); experiment: PDK-1 kinase activity (Upstate kit, cell-free); format: biochemical
T1 construct: purchased Upstate (Lake Placid, N.Y.)
T1 sequence (O15530 1-556): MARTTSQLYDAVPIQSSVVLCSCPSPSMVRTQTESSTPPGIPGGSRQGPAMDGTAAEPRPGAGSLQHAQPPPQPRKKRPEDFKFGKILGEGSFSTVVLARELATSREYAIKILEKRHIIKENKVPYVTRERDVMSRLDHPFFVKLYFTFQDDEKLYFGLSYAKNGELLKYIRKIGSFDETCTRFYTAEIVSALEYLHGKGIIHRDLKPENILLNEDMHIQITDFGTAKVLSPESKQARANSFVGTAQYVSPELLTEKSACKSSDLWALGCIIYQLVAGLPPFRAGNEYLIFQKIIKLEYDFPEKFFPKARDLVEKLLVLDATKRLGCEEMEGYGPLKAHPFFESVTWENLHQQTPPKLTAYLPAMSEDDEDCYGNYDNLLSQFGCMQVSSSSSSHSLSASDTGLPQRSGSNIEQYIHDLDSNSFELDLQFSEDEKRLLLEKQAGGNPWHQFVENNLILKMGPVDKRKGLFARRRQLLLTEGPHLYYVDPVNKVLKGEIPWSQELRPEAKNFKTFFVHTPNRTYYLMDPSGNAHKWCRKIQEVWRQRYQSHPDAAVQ
Protocol: PDK-1 kinase activity This in vitro assay was performed using a PDK-1 kinase assay kit (Upstate, Lake Placid, N.Y.) according to the vendor's instructions. This cell-free assay is based on the ability of recombinant PDK-1, in the presence of DMSO vehicle or the test agent, to activate its downstream kinase serum- and glucocorticoid-regulated kinase (SGK.) which, in turn, phosphorylates the Akt/SGK-specific peptide substrate RPRAATF with [γ-^32]-ATP. […] The reported values represent the means of two independent determinations.

SF-295 = experiment: NCI DTP cell line screen (SRB), CNS Cancer; format: cell-based
Protocol: Screening of compounds 70 and 71 against several cancer cell lines The human tumor cell lines of the cancer screening panel are grown in RPMI 1640 medium containing 5% fetal bovine serum and 2 mM L-glutamine. For a typical screening experiment, cells are inoculated into 96 well microtiter plates in 100 μL at plating densities ranging from 5,000 to 40,000 cells/well depending on the doubling time of individual cell lines. After cell inoculation, the microtiter plates are incubated at 37° C., 5% CO2, 95% air and 100% relative humidity for 24 h prior to addition of experimental drugs.
After 24 h, two plates of each cell line are fixed in situ with TCA, to represent a measurement of the cell population for each cell line at the time of drug addition (Tz). Experimental drugs are solubilized in dimethyl sulfoxide at 400-fold the desired final maximum test concentration and stored frozen prior to use. At the time of drug addition, an aliquot of frozen concentrate is thawed and diluted to twice the desired final maximum test concentration with complete medium containing 50 μg/ml gentamicin. Additional four, 10-fold or ½ log serial dilutions are made to provide a total of five drug concentrations plus control. Aliquots of 100 μl of these different drug dilutions are added to the appropriate microtiter wells already containing 100 μl of medium, resulting in the required final drug concentrations.
Following drug addition, the plates are incubated for an additional 48 h at 37° C., 5% CO2, 95% air, and 100% relative humidity. For adherent cells, the assay is terminated by the addition of cold TCA. Cells are fixed in situ by the gentle addition of 50 μl of cold 50% (w/v) TCA (final concentration, 10% TCA) and incubated for 60 minutes at 4° C. The supernatant is discarded, and the plates are washed five times with tap water and air dried. Sulforhodamine B (SRB) solution (100 μl) at 0.4% (w/v) in 1% acetic acid is added to each well, and plates are incubated for 10 minutes at room temperature. After staining, unbound dye is removed by washing five times with 1% acetic acid and the plates are air dried. Bound stain is subsequently solubilized with 10 mM trizma base, and the absorbance is read on an automated plate reader at a wavelength of 515 nm. For suspension cells, the methodology is the same except that the assay is terminated by fixing settled cells at the bottom of the wells by gently adding 50 μl of 80% TCA (final concentration, 16% TCA). Using the seven absorbance measurements [time zero, (Tz), control growth, (C), and test growth in the presence of drug at the five concentration levels (Ti)], the percentage growth is calculated at each of the drug concentrations levels. Percentage growth inhibition is calculated as: [(Ti−Tz)/(C−Tz)]×100 for concentrations for which Ti>/=Tz [(Ti−Tz)/Tz]×100 for concentrations for which Ti<Tz
Three dose response parameters are calculated for each experimental agent. […] The drug concentration resulting in total growth inhibition (TGI) is calculated from Ti=Tz. […] Values are calculated for each of these three parameters if the level of activity is reached; however, if the effect is not reached or is exceeded, the value for that parameter is expressed as greater or less than the maximum or minimum concentration tested.
The methods described were used to test compounds 70 and 71 on a panel of sixty cell lines under a screening service provided by the Developmental Therapeutics Program at the National Institutes of Health. Shown in FIG. 1C are 1, RPMI-8226 leukemia cells; 2; NCI-H322M non-small cell lung cancer cells; 3, HT29 colon cancer cells; 4, U251 CNS cancer cells; 5, SK-MEL-28 melanoma cancer cells; 6, SK-OV-3 ovarian cancer cells; 7, RXF 393 renal cancer cells; 8, PC-3 prostate cancer cells; 9, MDA-MB-231 breast cancer cells.

BT-549 = experiment: NCI DTP cell line screen (SRB), Breast Cancer; format: cell-based

SMILES	IC50 (PC-3 cells) [µM]	increase in potency over compound 59 (PDK-1 inhibition) (recombinant PDK-1)	TGI (SF-295)	Percent Growth (SF-295; Log10 Concentration −4.0) [%]	Percent Growth (SF-295; Log10 Concentration −5.0) [%]	Percent Growth (SF-295; Log10 Concentration −6.0) [%]	Percent Growth (SF-295; Log10 Concentration −7.0) [%]	Percent Growth (SF-295; Log10 Concentration −8.0) [%]	TGI (BT-549)	Percent Growth (BT-549; Log10 Concentration −4.0) [%]	Percent Growth (BT-549; Log10 Concentration −5.0) [%]	Percent Growth (BT-549; Log10 Concentration −6.0) [%]	Percent Growth (BT-549; Log10 Concentration −7.0) [%]	Percent Growth (BT-549; Log10 Concentration −8.0) [%]
N=C(N)Nc1ccc(-n2nc(C(F)(F)F)cc2-c2ccc3c(ccc4ccccc43)c2)cc1 [Compound 71, 4-[5-(2-Phenanthrenyl)-3-(trifluoromethyl)-1H-pyrazol-1-yl]-phenyl-guanidine]	3	–	–	–	–	–	–	–	–	–	–	–	–	–
NCC(=O)Nc1ccc(-n2nc(C(F)(F)F)cc2-c2ccc3c(ccc4ccccc43)c2)cc1 [Compound 70, 2-Amino-N-{4-[5-(2-phenanthrenyl)-3-(trifluoromethyl)-1H-pyrazol-1-yl]-phenyl}-acetamide]	–	two	3.71E−06	−32	−47	62	96	94	2.95E−06	−60	−71	63	86	90
